The values below are quoted from earlier work in patent EP4732833A1, “ROPIVACAINE MICROSPHERE AND PREPARATION METHOD THEREFOR” (Bostal Drug Delivery Co., Ltd., priority 2023, dated 2025).

Molecules are shown by their SMILES.

The conditions of the series: background statement.

In the case of `CCCN1CCCC[C@H]1C(=O)Nc1c(C)cccc1C` [Ropivacaine, (S)-N-(2,6-dimethylphenyl)-1-propylpiperidine-2-carboxamide], the plasma half-life is 1.8 h.
